# According to patent publication US4866206A, “2-Halomethyl derivatives of 2-amino acids” (Merrell Dow France et Cie, priority 1988, dated 1989):
# Like-named read-outs stand apart in the source and are kept apart here.
# Tests used:
# [1] = molecular target: T1, rat liver ornithine decarboxylase (Rattus norvegicus, UniProt P09057); assay: time-dependent inhibition of rat liver ODC (in vitro); type: biochemical
# T1 construct: rat liver ornithine decarboxylase in vitro; from tissue; host or cells: rat liver
# T1 sequence (P09057 1-461): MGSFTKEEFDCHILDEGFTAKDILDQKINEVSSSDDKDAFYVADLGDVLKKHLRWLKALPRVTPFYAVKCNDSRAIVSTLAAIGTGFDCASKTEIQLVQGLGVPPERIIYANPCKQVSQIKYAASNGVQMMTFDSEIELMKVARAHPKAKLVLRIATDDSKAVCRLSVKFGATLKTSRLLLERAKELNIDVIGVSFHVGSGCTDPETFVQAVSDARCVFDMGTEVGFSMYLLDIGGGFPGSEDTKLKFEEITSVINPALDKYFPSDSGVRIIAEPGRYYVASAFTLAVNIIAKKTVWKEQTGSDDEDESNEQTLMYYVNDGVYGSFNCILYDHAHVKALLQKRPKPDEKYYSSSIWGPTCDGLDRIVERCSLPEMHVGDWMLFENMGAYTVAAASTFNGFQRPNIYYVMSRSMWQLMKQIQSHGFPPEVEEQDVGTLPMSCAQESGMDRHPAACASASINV
# [2] = molecular target: T2, ornithine decarboxylase (Rattus norvegicus, UniProt P09057); assay: ODC activity remaining in rat tissues after a single dose (in vivo); set-up: species or system rats
# T2 construct: from tissue; host or cells: rat ventral prostate and thymus
# T2 sequence (P09057 1-461): T1 sequence (P09057 1-461)
# Experimental: The ODC inhibitory activity of a compound can be determined in vitro by the method described by B. Metcalf et al., J. Am. Chem. Soc., 100, 2551 (1978) and in vivo by the method of C. Danzin, Life Sciences, 24, 519 (1979).
# 2-Fluoromethyl-2,5-diaminopentanoic acid and 2-fluoromethyl-2,6-diaminohexanoic acid were tested for inhibition of ornithine decarboxylase in rats according to the procedure of C. Danzin et al., Life Sciences, 24, 519 (1979).
# [3] = test system: female mice; assay: contragestational activity in mice; type: in vivo; details: for Resorption nodules gravid female / Viable feti gravid female: autopsy day 18
# Experimental: 2-Fluoromethyl-2,5-diaminopentanoic acid (MFM) was tested for contragestational activity in mice according to the procedure of J. Fozard et al., Eur. J. Pharmacol., 65, 379 (1980).
# In this experiment, the compound was given at the doses stated, subcutaneously (s.c.), every 6 hours starting at 12:00 on day 8 of gestation (4 doses). Animals were autopsied on day 18 and the numbers of viable feti and resorption nodules recorded.
# [4] = test system: prostatic growth in rats; assay: effect on prostatic growth in rats; type: in vivo; details: for % Weight loss of prostate: oral administration for 3 days
# Source text: Accordingly, the compounds of Formula I can be used as contragestational agents (abortifacients) in female animals when it is desired to terminate early pregnancy. The use of 2-fluoromethyl-2,5-diaminopentanoic acid, and derivatives thereof, as a contragestational agent is described and claimed in U.S. Pat. No. 4,309,442 of P. Bey and M. Jung. […] Danzin et al., Biochem. J., 202, 175 (1982). Accordingly, the compounds of Formula I can be used to treat benign prostatic hypertrophy. The use of 2-fluoromethyl-2,5-diaminopentanoic acid, and derivatives thereof, in the treatment of benign prostatic hypertrophy is described and claimed in the U.S. Pat. No. 4,330,559 of P. Bey and M. Jung.
# 2-Fluoromethyl-2,5-diaminopentanoic acid was tested for its effect on prostatic growth in rats according to the procedure of C. Danzin et al., Biochem. J., 202, 175 (1982).
# (a) Administered dissolved in drinking water employed as only water source for the animals.
# [5] = molecular target: T3, P. aeruginosa ODC (Pseudomonas aeruginosa, UniProt Q9HVQ3); assay: time-dependent inhibition of bacterial ODC (in vitro), P. aeruginosa; type: biochemical
# T3 construct: 14CO2 release from ornithine
# T3 sequence (Q9HVQ3 1-387): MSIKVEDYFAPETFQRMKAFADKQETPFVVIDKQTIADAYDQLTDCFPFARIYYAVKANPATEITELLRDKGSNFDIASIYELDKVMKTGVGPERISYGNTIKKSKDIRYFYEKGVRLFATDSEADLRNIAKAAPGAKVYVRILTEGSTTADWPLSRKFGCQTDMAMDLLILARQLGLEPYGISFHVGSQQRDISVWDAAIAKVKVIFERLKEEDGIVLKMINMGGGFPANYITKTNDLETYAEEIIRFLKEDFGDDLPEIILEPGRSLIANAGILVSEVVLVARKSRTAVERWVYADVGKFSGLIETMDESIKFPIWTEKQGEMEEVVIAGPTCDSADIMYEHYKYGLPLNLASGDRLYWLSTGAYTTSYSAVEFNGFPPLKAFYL
# Experimental: (§1) 2-Fluoromethyl-2,5-diaminopentanoic acid (MFMO) was tested for in vitro inhibition of ornithine decarboxylase from Escherichia coli and from Pseudomonas aeruginosa according to the procedure described as follows:
# (§2) Escherichia coli (M.R.C. 59) and Pseudomonas aeruginosa (A.T.C.C. 9027) were grown as described by Kallio et al., Biochem. J., 200, 69 (1981) in minimal medium [Davis et al., J. Bacteriol., 60, 17 (1950)] at 37° C. Cells were harvested by centrifugation (10 minutes at 10,000 g) and washed once with phosphate-buffered saline, pH 7.2 (0.125M NaCl, 10 mM Na2 HPO4, and 3 mM KH2 PO4). The cell pellet was suspended in 10 mM Tris/HCl (pH 7.5) containing 1 mM dithiothreitol and 0.1 mM EDTA and disrupted by sonication with a Branson Cell Disruptor 350 (5×30 sec, setting 3). Cell debris was removed by centrifugation at 25,000 g for 30 minutes and the supernatant (approximately 16 mg protein/ml), used for the measurement of ornithine decarboxylase, was stored frozen at -20° C. without appreciable loss of activity.
# (§3) Ornithine decarboxylase activity was measured by the release of ^14 Co2. Assays contained 100 mM tris/HCl (pH 8.25 for E. coli and pH 7.5 for P. aeruginosa), 0.04 mM pyridoxal phosphate, 1mM dithiotheritol, 10 mM L-ornithine, 2.5 μCi D,L-[1-^14 C]ornithine and 80-120 μg bacterial protein in a total volume of 1 ml. […]
# (§4) Time dependent irreversible inhibition of ornithine decarboxylase was determined according to the method of Kallio et al., Biochem. J., 200, 69 (1981). […] At selected times, 20 μl aliquots of the enzyme incubate were removed and transferred to the reaction flasks in which ODC activity was determined. […] The flasks were kept on ice until all time points were taken and then D,L-[1-^14 C]-ornithine was added and ODC activity was determined at 37° C. […]
# (§5) Kinetic parameters for the inhibition of ODC were determined as described by Kitz, J. Biol. Chem., 237, 3245 (1962) as modified by Jung et al., Biochem. Biophys. […]
# [6] = molecular target: T4, E. coli ODC (Escherichia coli, UniProt P21169); type: cell-based
# [7] = molecular target: T5, ODC of P. aeruginosa (Pseudomonas aeruginosa, UniProt Q9HVQ3); assay: ODC inhibition in intact P. aeruginosa cells; type: cell-based; details: in words
# T5 sequence (Q9HVQ3 1-387): T3 sequence (Q9HVQ3 1-387)
# Source text: However, by itself, α-MFMO has no effect on cell growth. Thus, […] inhibitory activity is useful only when used in combination with agents which will block other routes of polyamine biosynthesis, e.g. with both (a) α-difluoromethyl arginine, which inhibits arginine decarboxylase, and (b) dicyclohexylammonium sulfate, which inhibits spermidine synthesis.
# [8] = test system: E. coli (M.R.C; 59); assay: growth and polyamine content of E. coli cultures; type: cell-based; details: compound by itself
# [9] = test system: P. aeruginosa (A.T.C.C. 9027); assay: growth and polyamine content of P. aeruginosa cultures; type: cell-based; details: compound by itself
# [10] = molecular target: T4, E. coli ODC; assay: time-dependent inhibition of bacterial ODC (in vitro), E. coli; type: biochemical, Escherichia coli (M.R.C. 59); set-up: supernatant (approximately 16 mg protein/ml), used for the measurement of ornithine decarboxylase; endogenous in cells; host or cells: Escherichia coli M.R.C; 59, supernatant of sonicated cells
# Experimental: as §1, §2, §3, §4, §5
# [11] = concentration of compound which gives half-maximal rate of inhibition, time-dependent inhibition
# [12] = half-life of inhibition at 10 μM inhibitor
# [13] = half-life of inhibition at infinite concentration of inhibitor
# [14] = 6 hours after single oral dose, 12.5 mg/kg
# [15] = 6 hours after single oral dose, 25 mg/kg
# [16] = 6 hours after single oral dose, 50 mg/kg
# [17] = 6 hours after single oral dose, 100 mg/kg
# [18] = 50 mg/kg s.c. every 6 hours from day 8 of gestation (4 doses)
# [19] = 100 mg/kg s.c. every 6 hours from day 8 of gestation (4 doses)
# [20] = 200 mg/kg s.c. every 6 hours from day 8 of gestation (4 doses)
# [21] = 400 mg/kg s.c. every 6 hours from day 8 of gestation (4 doses)
# T4 sequence (P21169 whole entry): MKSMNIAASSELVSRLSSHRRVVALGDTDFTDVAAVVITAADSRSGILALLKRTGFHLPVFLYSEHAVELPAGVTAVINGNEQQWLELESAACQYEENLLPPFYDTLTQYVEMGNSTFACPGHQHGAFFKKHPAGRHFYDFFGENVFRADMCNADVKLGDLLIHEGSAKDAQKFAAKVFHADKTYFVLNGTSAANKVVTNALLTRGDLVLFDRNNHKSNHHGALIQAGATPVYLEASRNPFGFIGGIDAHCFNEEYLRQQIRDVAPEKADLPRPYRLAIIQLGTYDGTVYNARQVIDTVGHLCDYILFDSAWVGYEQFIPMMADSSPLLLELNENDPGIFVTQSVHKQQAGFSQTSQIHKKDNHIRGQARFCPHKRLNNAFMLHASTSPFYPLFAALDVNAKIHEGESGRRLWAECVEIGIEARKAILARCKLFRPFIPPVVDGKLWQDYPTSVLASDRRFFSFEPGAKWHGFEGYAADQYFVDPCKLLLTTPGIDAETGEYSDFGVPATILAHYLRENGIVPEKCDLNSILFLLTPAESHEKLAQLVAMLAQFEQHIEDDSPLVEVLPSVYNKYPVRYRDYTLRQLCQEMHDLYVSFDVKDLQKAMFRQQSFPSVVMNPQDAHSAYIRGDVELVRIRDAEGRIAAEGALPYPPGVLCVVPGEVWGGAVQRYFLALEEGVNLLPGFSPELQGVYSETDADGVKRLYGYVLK
compound,measurement,setting,value
"NCCCCC(N)(CCl)C(=O)O (stereo not drawn) [MCML, 2-chloromethyl-2,6-diaminohexanoic acid]",T1/2,[1],no apparent saturation
same,t1/2 at 10 μM,[1],62 min
"NCCCC(N)(CCl)C(=O)O (stereo not drawn) [MCMO, 2-chloromethyl-2,5-diaminopentanoic acid]",K I,[1]; [11],no apparent saturation
same,t1/2 at 10 μM,[1]; [12],22 min
same,T1/2,[1]; [13],no apparent saturation
"NCCCCC(N)(CF)C(=O)O (stereo not drawn) [MFML, 2-fluoromethyl-2,6-diaminohexanoic acid]",Ki,[1]; [11],430 µM
same,t1/2 at 10 μM,[1]; [12],88 min
same,T1/2,[1]; [13],2.0 min
same,ODC Activity remaining in ventral prostate,"[2]; single oral dose 200 mg/kg, 3 h",66 ± 6 % Control
same,ODC Activity remaining in ventral prostate,"[2]; single oral dose 200 mg/kg, 6 h",44 ± 10 % Control
same,ODC Activity remaining in ventral prostate,"[2]; single oral dose 200 mg/kg, 12 h",74 ± 7 % Control
"NCCCC(N)(CF)C(=O)O (stereo not drawn) [MFMO, 2-Fluoromethyl-2,5-diaminopentanoic acid]",Ki,[1]; [11],75 µM
same,t1/2 at 10 μM,[1]; [12],14 min
same,T1/2,[1]; [13],1.6 min
same,ODC Activity remaining in ventral prostate,"[2]; 5 hours after single i.p. injection, 12.5 mg/kg",70.5 ± 12.5 % Control
same,ODC Activity remaining in ventral prostate,"[2]; 5 hours after single i.p. injection, 25 mg/kg",77.0 ± 10.5 % Control
same,ODC Activity remaining in ventral prostate,"[2]; 5 hours after single i.p. injection, 50 mg/kg",57.0 ± 13.0 % Control
same,ODC Activity remaining in ventral prostate,"[2]; 5 hours after single i.p. injection, 100 mg/kg",14.5 ± 10.0 % Control
same,ODC Activity remaining in ventral prostate,"[2]; 5 hours after single i.p. injection, 200 mg/kg",15.5 ± 1.0 % Control
same,ODC Activity remaining in thymus,[2]; [14],81 ± 6 % Control
same,ODC Activity remaining in ventral prostate,[2]; [14],98 ± 18 % Control
same,ODC Activity remaining in thymus,[2]; [15],93 ± 8 % Control
same,ODC Activity remaining in ventral prostate,[2]; [15],67 ± 7 % Control
same,ODC Activity remaining in thymus,[2]; [16],99 ± 5 % Control
same,ODC Activity remaining in ventral prostate,[2]; [16],45 ± 7 % Control
same,ODC Activity remaining in thymus,[2]; [17],87 ± 6 % Control
same,ODC Activity remaining in ventral prostate,[2]; [17],44 ± 6 % Control
same,Resorption nodules gravid female,[3]; [18],3.3 ± 1.1
same,Viable feti gravid female,[3]; [18],9.1 ± 1.5
same,Resorption nodules gravid female,[3]; [19],2.3 ± 0.6
same,Viable feti gravid female,[3]; [19],12.7 ± 0.9
same,Resorption nodules gravid female,[3]; [20],4.2 ± 1.2
same,Viable feti gravid female,[3]; [20],9.2 ± 1.5
same,Resorption nodules gravid female,[3]; [21],8.9 ± 1.9
same,Viable feti gravid female,[3]; [21],5.4 ± 1.5
same,interruption of embryogenesis,"[3]; female mice, method of Fozard",capable of interrupting embryogenesis
same,% Weight loss of prostate,[4]; 3.75 g/l in drinking water,-10%
same,% Weight loss of prostate,[4]; 7.5 g/l in drinking water,-14%
same,% Weight loss of prostate,[4]; 15 g/l in drinking water,-19%
same,weight of the ventral prostate,"[4]; rats, method of Danzin",significant decrease
same,Ki,"[5]; P. aeruginosa ODC, concentration giving half-maximal rate of inhibition, 20° C., pH 7.5",300 µM
same,T1/2,"[5]; P. aeruginosa ODC, half-life at infinite concentrations",12 min
same,inhibition of ODC of P. aeruginosa in vitro,"[5]; in vitro, in words",inhibit
same,inhibition at 2000 µM,[6]; bacteria grown in the presence of 2 mM of the compound,99%
same,inhibition of ODC of E. coli in intact cells,"[6]; intact cells, in words",inhibit
same,inhibition of ODC of P. aeruginosa in intact cells,[7],inhibit
same,effect on cell growth,[8],no effect
same,effect on cell growth,[9],no effect
same,Ki,"[10]; E. coli ODC, concentration giving half-maximal rate of inhibition, 20° C., pH 8.25",360 µM
same,T1/2,"[10]; E. coli ODC, half-life at infinite concentrations",12 min
same,inhibition of ODC of E. coli in vitro,"[10]; in vitro, in words",inhibit
